Test results published in patent US9518038B2, “Condensation product of theanine derivative and carboxylic acid coumarin derivative, its intermediate, preparation method and use thereof” (SHANDONG YINGDONG YINGHAO BIOTECHNOLOGY, INC., priority 2012, dated 2016).
Read-outs that look alike come from different tables or passages of the source. Marks after values point to notes of the source that are not given here.

Columns and labels:
[1] = system: Nuclear β-catenin; assay: Western Blotting, nuclear β-catenin level; type: cell-based; conditions: human liver cancer cells, Lewis lung cancer cells and other cancer cell lines and tumor tissues, read-out: Effective concentration (IC50) for inhibition of Nuclear β-catenin
Description: (§1) Antibodies: primary antibodies of VEGFR, EGFR, c-Met, K-Ras, H-Ras, Akt, NF-κB, Cyclin D1, ER-alpha, Dvl-1, Dvl-2, Dvl-3, MMP-9, MMP2, β-catenin, Bcl-2, Bax, p53, p21, E-cadherin and Caspase3 protein, purchased from American Cell Signaling Technology Company and Santa Cruz Technology Company; and H3 acetylation, H4 acetylation and HDAC (HDAC3, HDAC4 and the like) Antibody Sample Kits, purchased from Cell Signaling Technology Company of the U.S.
(§2) (3) polyacrylamide gel electrophoresis (SDS-PAGE): an equal amount of protein lysate sample was used to separate protein, film transfer, and blocking, treated with appropriate primary antibodies and secondary antibodies in sequence, and the film was washed, then the color was developed with ECL kit, and a blot protein band was detected by exposure of an X-ray film; and a Gel-Pro Analyzer was used for quantitative analysis of gray degree, optical density value of the control group and the drug treatment group in various concentration were respectively compared with that of internal reference, the obtained ratios were respectively compared with the control group, and the protein expression level was semi-quantified.

[2] = system: H-Ras; assay: Western Blotting, H-Ras level; type: cell-based; conditions: human liver cancer cells, Lewis lung cancer cells and other cancer cell lines and tumor tissues, read-out: Effective concentration (IC50) for inhibition of H-Ras
Description: as §1, §2

[3] = system: HDAC3; assay: HDAC3 enzyme activity in nuclear extracts of human tumor xenografts of treated mice; conditions: first value of the pair HDAC3 and HDAC4, SAHA 25 mg/kg
Description: For the detection of the effect of the drugs on enzyme activity of EZH2 and HDAC of in-vivo tumors, the tumors were separately excised after 6 h of medication, total proteins and nucleoproteins were extracted separately to detect and analyze the activity of the enzyme.
(2) 50 μl of diluted sample solution was added into each reaction well, the plate was sealed with a plate-sealing film and reacted at room temperature for 30 min;
(3) the plate-sealing film was carefully peeled off, the liquid was removed, dried, 150 μl of washing liquid was added into each well, stood for 30 s, then the liquid was removed, repeated twice, and dried;
(4) 2 μl of HDAC enzyme or tumor tissue nuclear extracts was respectively uniformly mixed with 28 μl of diluted sample solution, added into the wells, the plate was sealed with the plate-sealing film and reacted at 37° C. for 60 min;
(5) the plate was washed for three times, wherein the operation was the same as that in (3); and a diluted antibody capture working solution was added into each reaction well according to 50 μl/well and reacted on a shaking bed at room temperature for 60 min;
(6) the plate was washed for four times, wherein the operation was the same as that in (3);
(7) a diluted antibody detection working solution was added into each reaction well according to 50 μl/well and reacted at room temperature for 30 min;
(8) the plate was washed for five times, wherein the operation was the same as that in (3);
a color developing agent was added according to 100 μl/well, and performed dark development for 2-10 min;
(9) 50 μl of stop solution was added into each well for stopping the reaction when the color in the well with a standard product turned blue with medium intensity, the color immediately turned yellow from blue after the addition;
(10) the light absorbance (OD value) of each well was measured in sequence at the wavelength of 450 nm; wherein the measurement should be performed within 15 min after addition of the stop solution; and

[4] = system: nucleoprotein factor NF-κB (p65)-DNA binding activity; assay: NF-κB (p65)-DNA binding activity (EMSA); type: cell-based
Description: The in-vitro experiment of the inhibitory effect against the NF-κB(p65)-DNA binding activity was applied with the chemiluminescent EMSA kit of Pierce Biotechnology Company of the U.S., the experimental method was strictly operated according to the description of the kit and the specific procedure were as follows:
(1) Preparation of EMSA gel
The cells treated by the drugs were extracted by the nucleoprotein extract solution (provided by Beyotime Biotechnology of Institute) to obtain the nucleoprotein extracts, and 10 μg/pipe of the nucleoprotein extracts were respectively used for sample reaction and electrophoresis detection and analysis shown in the following table.
(2) Pre-electrophoresis: the gel was fixed in an electrophoresis tank, which was filled with a 0.5×TBE electrophoresis buffer solution, and electrophoresed under 10V/cm for 90 min. The probe binding reaction was as follows:
The components were added in sequence into the EP pipe according to the above table, uniformly mixed and stood at room temperature for 15 min to eliminate possible non-specific binding of probe and protein. 1 μl of biotin-labeled probe NF-κB was respectively added and stood at room temperature for 20 min.
(4) Film transfer: the process of transferring the nucleoprotein factors and the binding probe on the EMSA gel to the nylon film was electrically transferred under 380 mA in ice bath for 40 min.
(5) Ultraviolet cross-linking: the nylon film was placed under a 254 nm ultraviolet lamp and irradiated for 15 min.
(6) Detection of the biotin-labeled probe by chemiluminescence: the cross-linked nylon film was blocked with the blocking solution, a treated film was subjected to X-ray exposure, developing, and fixation according to the requirements of the kit, and the results were analyzed.

[5] = system: Caspase3; assay: Western Blotting, increase of Caspase3 level; type: cell-based; conditions: liver cancer cells, Lewis lung cancer cells and other cancer cell lines and tumor tissue protein lysates, 48 h treatment, read-out: Effective concentration to increase Caspase-3 by 50%
Description: as §1, §2

[6] = system: human chronic leukemia cells K562; assay: MTT growth inhibition, K562 cells; type: cell-based; conditions: 72 h after treatment, read-out: Drug concentration (IC50) at which 50% cancer cells survived
[7] = system: human breast cancer cells MCF-7; assay: MTT growth inhibition, MCF-7 cells; type: cell-based; conditions: MCF7, 72 h after treatment, read-out: Drug concentration (IC50) at which 50% cancer cells survived
[8] = system: E-cadherin; assay: Western Blotting, increase of E-cadherin level; type: cell-based; conditions: liver cancer cells, Lewis lung cancer cells and other cancer cell lines and tumor tissue protein lysates, 48 h treatment, read-out: Effective concentration to increase E-cadherin by 50%
Description: as §1, §2

[9] = A549 cells, EMSA, nuclear protein extracts, 48 h, read-out: Effective concentration for 50% inhibition of binding of nucleoprotein factor NF-kB (p65) and DNA
[10] = Hela cells, EMSA, nuclear protein extracts, 48 h, read-out: Effective concentration for 50% inhibition of binding of nucleoprotein factor NF-kB (p65) and DNA
[11] = MCF7 cells, EMSA, nuclear protein extracts, 48 h, read-out: Effective concentration for 50% inhibition of binding of nucleoprotein factor NF-kB (p65) and DNA
[12] = MDA-MB231 cells, EMSA, nuclear protein extracts, 48 h, read-out: Effective concentration for 50% inhibition of binding of nucleoprotein factor NF-kB (p65) and DNA
[13] = PANC-1 cells, EMSA, nuclear protein extracts, 48 h, read-out: Effective concentration for 50% inhibition of binding of nucleoprotein factor NF-kB (p65) and DNA
[14] = SMMC7721 cells, EMSA, nuclear protein extracts, 48 h, read-out: Effective concentration for 50% inhibition of binding of nucleoprotein factor NF-kB (p65) and DNA
[15] = human liver cancer cells, Lewis lung cancer cells and other cancer cell lines and tumor tissues, read-out: Effective concentration (IC50) for inhibition of NF-κB-DNA binding activity

Compound | IC50 [1] | IC50 [2] | decrease of HDAC3 enzyme activity/inhibition rate ([3]; A549 tumor grown in vivo) | decrease of HDAC3 enzyme activity/inhibition rate ([3]; MCF7 tumor grown in vivo) | decrease of HDAC3 enzyme activity/inhibition rate ([3]; MDA-MB231 tumor grown in vivo) | decrease of HDAC3 enzyme activity/inhibition rate ([3]; SMMC7721 tumor grown in vivo) | IC50 [4, 9] | IC50 [4, 10] | IC50 [4, 11] | IC50 [4, 12] | IC50 [4, 13] | IC50 [4, 14] | IC50 [4, 15] | EC50 [5] | IC50 [6] | IC50 [7] | EC50 [8]
CCNC(=O)CC[C@@H](NC(=O)c1cc2cc(Cl)cc(Cl)c2oc1=O)C(=O)OCC [Compound Ig, (R)-2-(6,8-dichloro-2-oxo-2H-benzopyran-3-carboxamido)-5-ethylamino-5-oxo-pentanoic ethyl ester] | < 100 µM | < 65 µM | 61%* and | 66%* and | 64%* and | 62%* and | < 70 µM | < 70 µM | < 70 µM | < 70 µM | < 70 µM | < 70 µM | < 125 µM | < 70 µM | 57 µM | 75 µM | < 70 µM
CCNC(=O)CC[C@@H](NC(=O)c1cc2cc(Br)cc(Br)c2oc1=O)C(=O)OCC [Compound Ih, (R)-2-(6,8-dibromo-2-oxo-2H-benzopyran-3-carboxamido)-5-ethylamino-5-oxo-pentanoic ethyl ester] | < 100 µM | < 65 µM | 57%* and | 64%* and | 62%* and | 60%* and | < 70 µM | < 70 µM | < 70 µM | < 70 µM | < 70 µM | < 70 µM | < 125 µM | < 70 µM | 79 µM | 91 µM | < 70 µM
